# Experiments:
# Format in all cases: cell-based
# SARS-CoV-2 = test: Reduction of viral nucleic acid load of Vero E6 cells infected by SARS-CoV-2 (qRT-PCR of supernatant); conditions: for Viral genome copy number (MOI = 0.05): infected supernatant, 48 h, vehicle 2215912896 ± 388319129
# [1] = Cytotoxicity test of drug (CCK-8 kit); conditions: African green monkey, Vero E6 cells
# Protocol: (§1) The detection of the drug cytotoxicity was performed using CCK-8 kit (Beoytime). Specific steps were as follows:
# (§2) 1) 1×10^4 Vero E6 (ATCC) cells were placed in a 96-well plate and incubated at 37° C. for 8 hours.
# (§3) 2) The drug was diluted with DMSO to an appropriate concentration of mother liquor, and then diluted with MEM medium (purchased from Gibco, Catalog No. 10370021) containing 2% FBS (purchased from Gibco, Catalog No. 16000044) to the same concentration as that for the drug treatment. The original medium in the 96-well plate was discarded, 100 μL of drug-containing MEM medium was added to the cells, and three replicate wells were prepared for each concentration. Negative control (vehicle group, DMSO and medium were added to the cell wells, without adding drug) and blank control (DMSO and medium were added to the wells, without cells) were set up. After the drug was added, the cells were cultured at 37° C. for 48 hours.
# (§4) 3) 20 μL of CCK-8 solution (Beoytime) was added to the well to be tested, mixed gently, without generating bubbles, and continuously incubated at 37° C. for 2 hours. OD450 was read on a microplate reader (purchased from Molecular Devices, Model: SpectraMax M5), and cell viability was calculated:
# (§5) Cell activity (%)=(A(drug treatment group)−A(blank control))/(A(vehicle control)−A(blank control))=100%
# (§6) wherein A was the reading of the microplate reader.
# Vero E6 cells = test: Cytotoxicity test of drug (CCK-8 kit); conditions: for Cell viability: Vero E6, 48 h
# Protocol: as §1, §2, §3, §4, §5, §6
smiles,measurement,setting,value
"C=C(C)[C@@H]1CCC(C)=C[C@H]1c1c(O)cc(CCCCC)cc1O [cannabidiol, (−)-2-[(3R,4R)-p-mentha-1,8-dien-3β-yl]-5-pentylresorcinol]",Viral genome copy number (MOI = 0.05),SARS-CoV-2; 0.04 μM,1853011000 ± 279114748
same,Viral genome copy number (MOI = 0.05),SARS-CoV-2; 0.12 μM,1860569042 ± 365350110
same,Viral genome copy number (MOI = 0.05),SARS-CoV-2; 0.37 μM,1224296104 ± 183149682
same,Viral genome copy number (MOI = 0.05),SARS-CoV-2; 1.11 μM,877127896 ± 122398434
same,Viral genome copy number (MOI = 0.05),SARS-CoV-2; 3.33 μM,668555500 ± 83251338
same,Inhibition of viral RNA load on cells,SARS-CoV-2; 48 h after infection of vero E6 cells with SARS-CoV-2 (FIG. 1),the inhibitory activity was dose-dependent
same,EC50,"SARS-CoV-2; Severe acute respiratory syndrome coronavirus 2, Vero C1008, Vero E6 cells, read-out: EC50 against SARS-CoV-2",620 nM
same,Inhibition of replication of the SARS-CoV-2 virus genome in the infected supernatant,"SARS-CoV-2; concentrations of 10 μM, 3.3 μM, 1.1 μM and 0.37 μM",could effectively inhibit the replication
same,CC50 at 48 h,[1],4100 nM
same,Cell viability,Vero E6 cells; 0.78 μM,73.45 ± 7.48%
same,Cell viability,Vero E6 cells; 1.56 μM,74.22 ± 13.42%
same,Cell viability,Vero E6 cells; 3.13 μM,58.45 ± 5.30%
same,Cell viability,Vero E6 cells; 6.25 μM,60.07 ± 6.01%
same,Cell viability,Vero E6 cells; 12.5 μM,50.01 ± 8.40%
same,Cell viability,Vero E6 cells; 25 μM,38.39 ± 5.70%
same,Cell viability,Vero E6 cells; 50 μM,22.85 ± 18.47%
same,Cell viability,Vero E6 cells; 100 μM,8.87 ± 3.59%
same,Change of cell viability,Vero E6 cells; concentrations of 1.56 μM and 0.78 μM,did not change the cell viability

# From patent US20230263811A1, “APPLICATION OF C[…] TREATMENT OF CORONAVIRUS INFECTIONS” (ACADEMY OF MILITARY MEDICAL SCIENCES, priority 2020, published 2023)
